Active and inactive are the calls of the source. No cut-off for these calls is given here.
Columns and labels:
[1] = AUC in po dosed rat; type: ADME, organism-based; conditions: plasma
[2] = Dissociation constant, pKa of the compound at pH 7.4; type: physicochemical
[3] = biological target: T1, MAP kinase-activated protein kinase 2 (Homo sapiens, UniProt P49137); assay: Inhibition of MK2 pretreated for 30 mins before fluorescein labeled substrate peptide addition measured after 2 hrs by IMAP assay
[4] = biological target: Serine/threonine-protein kinase pim-1 (Homo sapiens) (UniProt P11309); assay: Inhibition of PIM1 at 1 uM
THP-1 [5] = assay: Antiinflammatory activity in human THP1 cells assessed as inhibition of LPS-induced TNFalpha production pretreated 30 mins before LPS challenge measured after 4 hrs; type: functional, cell-based
in vitro = conditions: human, Caco-2
Description: Permeability across human Caco2 cells

[6] = biological target: Serine/threonine-protein kinase pim-3 (Homo sapiens) (UniProt Q86V86); assay: Inhibition of PIM3 at 1 uM
[7] = biological target: Mitogen-activated protein kinase 1 (Homo sapiens) (UniProt P28482); assay: Inhibition of ERK2 at 1 uM
[8] = Half life in human liver microsomes; type: ADME, Microsome
[9] = biological target: Mitogen-activated protein kinase 3 (Homo sapiens) (UniProt P27361); assay: Inhibition of ERK1 at 1 uM
[10] = Inhibition of p38
[11] = Oral bioavailability in mouse; type: ADME, organism-based; conditions: in vivo
[12] = biological target: T1, MAP kinase-activated protein kinase 2; assay: Inhibition of MK2 in LPS-stimulated human THP1 cells assessed as inhibition of Hsp27 phosphorylation pretreated 60 mins before LPS challenge measured after 10 mins; type: cell-based, THP-1
[13] = Half life in rat liver microsomes; type: ADME, Microsome
[14] = biological target: Serine/threonine-protein kinase Chk2 (Homo sapiens) (UniProt O96017); assay: Inhibition of CHK2 at 1 uM
[15] = biological target: T2, Serine/threonine-protein kinase 17A (Homo sapiens) (UniProt Q9UEE5); assay: Inhibition of DRAK1 at 1 uM
T2 sequence (whole entry): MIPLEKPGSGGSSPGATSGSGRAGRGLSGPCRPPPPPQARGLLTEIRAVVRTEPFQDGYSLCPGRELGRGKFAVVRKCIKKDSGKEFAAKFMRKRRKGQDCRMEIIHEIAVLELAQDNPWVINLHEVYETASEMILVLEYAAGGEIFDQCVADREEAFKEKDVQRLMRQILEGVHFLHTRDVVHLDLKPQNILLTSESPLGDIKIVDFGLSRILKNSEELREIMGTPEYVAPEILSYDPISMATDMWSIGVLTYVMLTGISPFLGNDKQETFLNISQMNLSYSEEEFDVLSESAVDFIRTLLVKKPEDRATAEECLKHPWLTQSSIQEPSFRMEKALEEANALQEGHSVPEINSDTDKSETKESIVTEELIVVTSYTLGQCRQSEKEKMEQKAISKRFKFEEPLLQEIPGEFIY

THP-1 [16] = assay: Cytotoxicity against human THP1 cells by Alamar blue assay; type: cell-based
PBMC = assay: Antiinflammatory activity in human PBMC cells assessed as inhibition of LPS-induced TNFalpha production pretreated 30 mins before LPS challenge measured after 4 hrs by ELISA; type: functional, cell-based
[17] = biological target: T3, MAP kinase-activated protein kinase 5 (Homo sapiens) (UniProt Q8IW41); assay: Inhibition of MK5 at 1 uM
T3 sequence (whole entry): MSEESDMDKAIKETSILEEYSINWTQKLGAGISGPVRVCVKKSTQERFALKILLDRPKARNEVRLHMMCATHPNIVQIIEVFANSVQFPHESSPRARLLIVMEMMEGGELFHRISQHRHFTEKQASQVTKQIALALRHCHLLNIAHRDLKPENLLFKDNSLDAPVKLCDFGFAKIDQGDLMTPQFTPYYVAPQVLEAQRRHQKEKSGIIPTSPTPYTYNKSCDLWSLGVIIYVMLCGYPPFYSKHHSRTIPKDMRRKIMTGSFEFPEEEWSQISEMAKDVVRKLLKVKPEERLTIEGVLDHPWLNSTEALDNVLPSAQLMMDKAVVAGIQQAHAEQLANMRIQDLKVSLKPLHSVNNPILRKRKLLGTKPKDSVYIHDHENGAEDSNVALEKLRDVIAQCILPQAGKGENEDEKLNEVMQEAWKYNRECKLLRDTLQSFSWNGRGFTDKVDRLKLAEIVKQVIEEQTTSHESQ

[18] = biological target: MAP kinase-activated protein kinase 3 (Homo sapiens) (UniProt Q16644); assay: Inhibition of MK3 at 1 uM
Sequence of MAP kinase-activated protein kinase 3 (Homo sapiens) (Q16644 whole entry, looked up): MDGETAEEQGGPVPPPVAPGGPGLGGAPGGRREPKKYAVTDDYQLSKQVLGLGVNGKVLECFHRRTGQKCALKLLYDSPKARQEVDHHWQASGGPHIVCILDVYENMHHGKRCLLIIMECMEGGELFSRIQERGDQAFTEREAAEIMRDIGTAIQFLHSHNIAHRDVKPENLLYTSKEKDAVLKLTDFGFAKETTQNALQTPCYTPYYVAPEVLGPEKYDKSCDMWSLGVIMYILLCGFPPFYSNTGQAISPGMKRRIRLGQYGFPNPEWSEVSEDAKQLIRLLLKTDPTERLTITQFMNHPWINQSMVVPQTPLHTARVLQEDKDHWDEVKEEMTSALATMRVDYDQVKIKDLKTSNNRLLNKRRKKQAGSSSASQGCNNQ

Sequence of Serine/threonine-protein kinase pim-1 (Homo sapiens) (P11309 whole entry, looked up): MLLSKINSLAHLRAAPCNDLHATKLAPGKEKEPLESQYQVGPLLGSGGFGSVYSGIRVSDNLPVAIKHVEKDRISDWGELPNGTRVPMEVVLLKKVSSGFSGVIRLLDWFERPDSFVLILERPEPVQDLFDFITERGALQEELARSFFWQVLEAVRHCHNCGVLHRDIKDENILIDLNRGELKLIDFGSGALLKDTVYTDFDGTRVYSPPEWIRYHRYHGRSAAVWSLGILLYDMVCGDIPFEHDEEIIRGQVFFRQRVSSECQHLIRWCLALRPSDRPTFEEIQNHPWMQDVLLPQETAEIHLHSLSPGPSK
Sequence of Serine/threonine-protein kinase Chk2 (Homo sapiens) (O96017 whole entry): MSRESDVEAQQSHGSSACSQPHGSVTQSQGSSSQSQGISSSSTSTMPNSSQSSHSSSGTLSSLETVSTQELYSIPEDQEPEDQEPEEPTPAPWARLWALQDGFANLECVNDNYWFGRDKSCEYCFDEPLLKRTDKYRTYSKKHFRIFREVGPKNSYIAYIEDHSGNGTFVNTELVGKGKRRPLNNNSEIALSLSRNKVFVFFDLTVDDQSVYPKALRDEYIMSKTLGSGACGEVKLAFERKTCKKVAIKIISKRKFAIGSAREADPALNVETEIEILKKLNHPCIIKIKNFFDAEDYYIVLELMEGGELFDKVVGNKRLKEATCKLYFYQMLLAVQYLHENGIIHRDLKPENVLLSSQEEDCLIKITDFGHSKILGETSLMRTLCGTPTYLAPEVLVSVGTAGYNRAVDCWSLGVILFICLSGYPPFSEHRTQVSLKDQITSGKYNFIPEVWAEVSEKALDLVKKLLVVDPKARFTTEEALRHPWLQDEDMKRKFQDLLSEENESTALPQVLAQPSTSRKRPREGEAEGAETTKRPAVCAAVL
Sequence of Mitogen-activated protein kinase 1 (Homo sapiens) (P28482 whole entry, looked up): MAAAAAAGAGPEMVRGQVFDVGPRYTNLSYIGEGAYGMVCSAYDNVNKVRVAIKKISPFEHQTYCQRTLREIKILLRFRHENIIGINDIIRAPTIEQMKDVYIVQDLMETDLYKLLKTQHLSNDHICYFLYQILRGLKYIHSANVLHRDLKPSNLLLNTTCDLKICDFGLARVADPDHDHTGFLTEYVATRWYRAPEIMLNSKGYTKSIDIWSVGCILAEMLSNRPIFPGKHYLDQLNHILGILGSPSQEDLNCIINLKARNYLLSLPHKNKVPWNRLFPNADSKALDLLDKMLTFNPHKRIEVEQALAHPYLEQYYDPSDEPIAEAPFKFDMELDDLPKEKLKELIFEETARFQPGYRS
T1 sequence (P49137 whole entry): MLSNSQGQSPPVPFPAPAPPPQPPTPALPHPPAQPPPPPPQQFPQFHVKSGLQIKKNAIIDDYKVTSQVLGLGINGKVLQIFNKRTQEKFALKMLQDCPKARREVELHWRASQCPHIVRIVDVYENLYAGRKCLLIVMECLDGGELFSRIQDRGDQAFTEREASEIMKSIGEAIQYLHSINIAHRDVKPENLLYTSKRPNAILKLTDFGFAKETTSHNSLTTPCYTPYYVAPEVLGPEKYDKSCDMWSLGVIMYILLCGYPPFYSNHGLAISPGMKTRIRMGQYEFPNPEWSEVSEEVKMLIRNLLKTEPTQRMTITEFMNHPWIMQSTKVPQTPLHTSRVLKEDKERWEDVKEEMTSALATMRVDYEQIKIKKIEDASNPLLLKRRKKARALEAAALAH
Sequence of Mitogen-activated protein kinase 3 (Homo sapiens) (P27361 whole entry): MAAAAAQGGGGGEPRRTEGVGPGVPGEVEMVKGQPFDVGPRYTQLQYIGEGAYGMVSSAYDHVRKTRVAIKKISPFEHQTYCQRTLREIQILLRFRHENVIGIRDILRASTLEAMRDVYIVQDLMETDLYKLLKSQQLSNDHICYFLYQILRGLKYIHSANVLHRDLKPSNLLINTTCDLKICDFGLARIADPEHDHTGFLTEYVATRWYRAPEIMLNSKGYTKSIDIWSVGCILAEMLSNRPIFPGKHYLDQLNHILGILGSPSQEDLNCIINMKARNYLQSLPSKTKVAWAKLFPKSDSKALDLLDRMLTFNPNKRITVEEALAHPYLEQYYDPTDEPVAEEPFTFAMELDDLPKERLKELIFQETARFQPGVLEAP

| Compound | AUC [1] [µM·h] | pKa [2] | EC50 [3] [nM] | inhibition [4] [%] | EC50 (THP-1 [5]) [nM] | Papp (in vitro) [×10⁻⁶ cm/s] | inhibition [6] [%] | inhibition [7] [%] | half-life [8] [h] | inhibition [9] [%] | inhibition [10] | bioavailability [11] [%] | EC50 [12] [nM] | half-life [13] [h] | inhibition [14] [%] | inhibition [15] [%] | inhibition [17] [%] | inhibition [18] [%] | Activity (THP-1 [16]) | EC50 (PBMC) [nM] |
| --- | --- | --- | --- | --- | --- | --- | --- | --- | --- | --- | --- | --- | --- | --- | --- | --- | --- | --- | --- | --- |
| COc1cncc(-c2nccc(-c3cc4c([nH]3)C3(CCCNC3)CNC4=O)n2)c1 (racemic) |  | 8.4 | 24 | > 80 | 1400 |  | > 80 | > 80 | 0.945 | > 80 | inactive |  | 900 | 0.702 | > 80 | > 80 | > 95 | > 95 |  | 1000 |
| CN1CCC2(CC1)CNC(=O)c1cc(-c3ccnc(-c4cc5ccccc5o4)n3)[nH]c12 | 0.078 | 8.1 | 13 | > 80 | 470 | 1 | > 80 | > 80 | > 1 | > 80 | inactive |  | 1600 | > 1 | > 80 | > 80 |  |  | > 10 µM |  |
| CCN1CCC2(CC1)CNC(=O)c1cc(-c3ccnc(-c4cc5ccccc5o4)n3)[nH]c12 | 0.154 | 8.6 | 59 | > 80 | 1600 | 0.8 | > 80 | > 80 | > 1 | > 80 | inactive |  | > 10000 | > 0.993 | > 80 | > 80 |  |  | > 10 µM |  |

More lines, main results first:

| AUC [1] [µM·h] | pKa [2] | EC50 [3] [nM] | inhibition [4] [%] | EC50 (THP-1 [5]) [nM] | Papp (in vitro) [×10⁻⁶ cm/s] | inhibition [6] [%] | inhibition [7] [%] | half-life [8] [h] | inhibition [9] [%] | inhibition [10] | bioavailability [11] [%] | EC50 [12] [nM] | half-life [13] [h] | inhibition [14] [%] | inhibition [15] [%] | inhibition [17] [%] | inhibition [18] [%] | Compound | Activity (THP-1 [16]) | EC50 (PBMC) [nM] |
| --- | --- | --- | --- | --- | --- | --- | --- | --- | --- | --- | --- | --- | --- | --- | --- | --- | --- | --- | --- | --- |
| < 0.006 | 9.3 | 4.3 | > 80 | 910 | 0.1 | > 80 | > 80 | > 1 | > 80 | inactive | 0.7 | 620 | > 1 | > 80 | > 80 |  |  | O=C1NCC2(CCNCC2)c2[nH]c(-c3ccnc(-c4ccc5c(c4)OCO5)n3)cc21 |  |  |
| 0.472 | 8.4 | 11 | > 80 |  | 1.5 | > 80 | > 80 | > 1 | > 80 | inactive |  |  | > 1 | > 80 | > 80 |  |  | O=C1NCC2(CCCNC2)c2[nH]c(-c3ccnc(-c4cc5ccccc5o4)n3)cc21 (racemic) | Non-toxic |  |
| 3.21 | 8.3 | 28 | > 80 | 1400 | 3.4 | > 80 | > 80 | > 1 | > 80 | inactive | 48 | 930 | 0.808 | > 80 | > 80 | > 95 | > 95 | O=C1NCC2(CCCNC2)c2[nH]c(-c3ccnc(-c4ccc5c(c4)OCO5)n3)cc21 (racemic) |  | 1100 |
